From patent US20230203031A1, “COMPOUNDS USEFUL FOR INHIBITING CDK7” (Eli Lilly and Company, priority 2020, published 2023)

Key:
[1] = molecular target: T1, CDK7 (Homo sapiens, UniProt P50613); experiment: DiscoverX KINOMEscan competition binding, CDK7; conditions: 0.2 µM compound
T1 construct: purchased DiscoverX Corporation (KINOMEscan service)
Experimental: (§1) The purpose of the study is to generate an in vitro selectivity profile of the compounds of Example 8. To address selectivity, the compound of Example 8 is tested in a panel of 468 human kinases at DiscoverX Corporation using the KINOMEscan™ screening platform. KINOMEscan™ employs a novel and proprietary active site-directed competition binding assay to quantitatively measure interactions between test compounds and more than 450 human kinases and disease relevant mutant variants.
(§2) Compounds that bind the kinase active site and directly (sterically) or indirectly (allosterically) prevent kinase binding to an immobilized ligand, will reduce the amount of kinase captured on the solid support. […] Compound activity is monitored by measuring the amount of kinase captured in test versus control samples by using a qPCR method that detects the associated DNA label. Further information regarding the DiscoverX Corporation KINOMEscan™ screening platform can be found at http://www.discoverx.com.
(§3) Assays to monitor binding to a 468 kinase panel were conducted at DiscoverXⓇ Corporation (Fremont, CA). Example 8 is tested at 20 µM, 2 µM, and 0.2 µM final concentrations. Kinases are tagged with DNA for qPCR detection. […] The kinase concentration in the eluates is measured by qPCR. […]

[2] = test system: panel of 468 human kinases; experiment: DiscoverX KINOMEscan selectivity profiling, 468 kinase panel; format: binding; conditions: CDK7 the only kinase with less than 35% control activity at 0.2 µM
Experimental: as §1, §2, §3

[3] = test system: A2780; experiment: Cell proliferation assay (CELL TITER GLO), A2780; format: cell-based; conditions: Homo sapiens, 168 h; A2780 ovarian cancer, seven days after compound addition
Experimental: Cell lines are plated at the density 5000 cells per well in 100 µL per well growth medium into a white 96-well cell culture plate. See Table 1 for cell line and culture medium information. Plates are incubated at 37° C. and 5% CO2. The following day, a serial dilution of the test compound is prepared by diluting the compound 1:3 in DMSO for 10 points. The DMSO plate is 1000X the final concentration. In addition to the CDK7 inhibitor, a DMSO alone column is included as a maximum growth control and 10 µM staurosporine final column is included as a maximum growth inhibition control. A 10X dilution plate is then prepared by adding 2 µL per well from the 1000X DMSO plate to 198 µL per well of OMEM (Life Technologies, Carlsbad, CA, cat#31985-070). Cells are treated with indicated compound by adding 11 µL per well from the 10X OMEM plate to the cell plate containing 100 µL per well growth medium for a 1X final concentration. Plates are placed back into the incubator at 37° C. and 5% CO2. Six or seven days after compound addition, for HCC1806 or A2780 cells respectively, plates are removed from the incubator and allowed to equilibrate to RT. […] After 15 minute incubation on shaker, luminescence is read, 1 second per well, using a Wallac VICTOR2™. […]

[4] = test system: HCC1806 xenograft tumor model; experiment: Xenograft tumor model; format: in vivo, female athymic nude mice; conditions: QDx28, HCC1806 (KMT2C)
Experimental: The purpose of this assay is to measure reduction in tumor volume in response to the compound of Example 1. To evaluate in vivo efficacy of a test compound, multiple xenograft tumor models are utilized. Briefly, 2.5 × 10^6 tumor cells in a 1:1 MATRIGEL® mix (0.2 mL total volume) are injected subcutaneously into the female athymic nude mice (Envigo, Harlan Laboratories). After allowing tumors to reach a desired size of ~300-500 mm^3, animals are randomized into groups of 5 for efficacy studies. Test compound is administered via oral gavage (PO) at indicated doses and regimens. Tumor growth and body weight are monitored over time to evaluate efficacy and signs of toxicity.
Test compound is formulated in 1% hydroxyethylcellulose, 0.25% polysorbate 80, 0.05% antifoam in purified water (HEC) and administered by oral gavage (final volume 0.2 mL) at the doses indicated in Table 2. A test compound is formulated on a weekly basis and stored at 4° C. Vehicles are administered to the control groups according the schedules used above using a volume of 0.2 mL per dose. Mice are dosed via oral gavage and tumor samples are collected at termination and stored at -80° C.
Tumor size and body weight are recorded and analyzed bi-weekly.
Delta T/C% is calculated when the endpoint tumor volume in a treated group is at or above baseline tumor volume. The formula is 100×(T-T0)/(C-C0). […]

T1 sequence (P50613 whole entry): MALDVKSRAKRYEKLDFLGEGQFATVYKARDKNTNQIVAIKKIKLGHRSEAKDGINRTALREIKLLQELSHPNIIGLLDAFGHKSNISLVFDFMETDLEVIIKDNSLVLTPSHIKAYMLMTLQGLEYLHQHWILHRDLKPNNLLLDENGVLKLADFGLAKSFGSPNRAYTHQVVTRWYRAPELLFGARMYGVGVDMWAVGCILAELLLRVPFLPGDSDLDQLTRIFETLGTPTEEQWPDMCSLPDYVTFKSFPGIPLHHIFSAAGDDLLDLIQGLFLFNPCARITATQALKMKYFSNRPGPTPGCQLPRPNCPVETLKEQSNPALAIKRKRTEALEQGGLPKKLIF

SMILES	remaining binding at 0.2 µM ([1]; read-out: % control activity against CDK7) [%]	inhibition at 0.2 µM ([1]; read-out: inhibition against CDK7) [%]	selectivity against the 468 protein kinases panel [2]	IC50 [3] [nM]	Avg. ΔT/C ([4]; 10 mg/kg PO) [%]	Avg. ΔT/C ([4]; 20 mg/kg PO) [%]
C=CC(=O)N1CCO[C@H](CN2CCC(Nc3cc(C(F)(F)F)cn4c(C(C)C)cnc34)CC2)C1 [Example 8, 1-[(2R)-2-[[4-[[3-isopropyl-6-(trifluoromethyl)imidazo[1,2-a]pyridin-8-yl]amino]-1-piperidyl]methyl]morpholin-4-yl]prop-2-en-1-one]	~4	~96	excellent selectivity	–	–	–
C=CC(=O)N1CCO[C@H](CN2CCC(Nc3cc(C(C)F)cn4c(C(C)C)cnc34)CC2)C1 (single isomer, unassigned) [Example 1]	–	–	–	22.8	16.5	-38.0
